Reference: US11970474B2, “Substituted benzodiazoles and use thereof in therapy” (THOMAS HELLEDAYS STIFTELSE FÖR MEDICINSK FORSKNING, priority 2018, dated 2024)

Columns and labels:
Experiment in all cases: Cell viability assay (resazurin)
Type in all cases: cell-based
PC3 = conditions: Homo sapiens, PC-3, 120 h, Cancer, Prostate adenocarcinoma, five day incubation
Method: (§1) A dilution series of compound or vehicle are transferred to 96-well plates. Cells are seeded into the plate (500-10,000 cells/well) in suitable media and incubated for five days in 5% CO2 at 37° C. Thereafter, resazurin (diluted in suitable medium or PBS) are added to a final concentration 10 μg/ml resazurin at 37° C. for 2-4 hours before measuring the fluorescence (Ex544/Em590), essentially as described (Riss, Terry L. et al., “Cell Viability Assays.” In Assay Guidance Manual, ed. G. Sitta Sittampalam, et al. Bethesda (Md.): Eli Lilly & Company and the National Center for Advancing Translational Sciences (2004) http://www.ncbi.nlm.nih.gov/books/NBK144065/).
(§2) The compounds to be tested are nano-dispensed in duplicate in 11 concentrations, directly in 384-well cell plates, with a final DMSO concentration<1%. Cells are seeded in cell plates, pre-dispensed with compounds (200-2500 cells/well in 50 μl). After three or five days culture in 5% CO2, 37° C., resazurin diluted in PBS is added, 10 μl/well, to a final concentration of 10 μg/ml and cells are incubated 2-4 hours before measuring fluorescence (Ex544/Em590), as described (ibid.). Results obtained for selected example compounds described herein on cancer- and non-transformed cell lines are provided in the table below (Table 3) and summarized in FIG. 1. Where indicated, combination indexes was measured with CompuSyn software (www.compusyn.com) by the method of Chou-Talalay (Chou, Ting-Chao., Cancer Research, 70(2), 440-46 (2010)).

HCT116 = conditions: Homo sapiens, HCT-116, 120 h, Cancer, Colorectal Carcinoma, five day incubation
Method: as §1, §2

HT-29 = conditions: Homo sapiens, 120 h, Cancer, Colorectal Adenocarcinoma, five day incubation
Method: as §1, §2

HCT116 + Chr3 = conditions: Homo sapiens, HCT-116, 120 h, Cancer, Colorectal Carcinoma, five day incubation
Method: as §1, §2

Reh = conditions: Homo sapiens, 120 h, Cancer, Acute Lymphocytic Leukemia, five day incubation
Method: as §1, §2

UO31 = conditions: Homo sapiens, UO-31, 120 h, Cancer, Renal carcinoma, five day incubation
Method: as §1, §2

CCD841 = conditions: CCD-841, 120 h, Normal, fetal epithelial colon, five day incubation
Method: as §1, §2

BJ Tert = conditions: 120 h, Normal, immortalized fibroblast, five day incubation
Method: as §1, §2

SW480 = conditions: Homo sapiens, 120 h, Cancer, Colorectal Adenocarcinoma, five day incubation
Method: as §1, §2

A549 = conditions: Homo sapiens, 120 h, Cancer, Lung carcinoma, five day incubation
Method: as §1, §2

Jurkat = conditions: Homo sapiens, 120 h, Cancer, Acute lymphoblastic leukemia, five day incubation
Method: as §1, §2

Rec1 = conditions: Homo sapiens, 120 h, Cancer, Mantle Cell Lymphoma, five day incubation
Method: as §1, §2

M059J = conditions: Homo sapiens, 120 h, Cancer, Malignant Glioblastoma, five day incubation
Method: as §1, §2

H460 = conditions: Homo sapiens, NCI-H460, 120 h, Cancer, large cell lung carcinoma, five day incubation
Method: as §1, §2

RFX393 = conditions: 120 h, Cancer, Renal cancer cell lines, five day incubation
Method: as §1, §2

MOLT4 = conditions: Homo sapiens, MOLT-4, 120 h, Cancer, Acute Lymphoblastic Leukemia, five day incubation
Method: as §1, §2

CCRF-CEM = conditions: Homo sapiens, 120 h, Cancer, Acute Lymphoblastic Leukemia, five day incubation
Method: as §1, §2

PL-21 = conditions: 120 h, Cancer, acute myeloid leukemia, five day incubation
Method: as §1, §2

A3 = conditions: 120 h, Cancer, Acute lymphoblastic leukemia, five day incubation
Method: as §1, §2

SaOS2 = conditions: Homo sapiens, SAOS-2, 120 h, Cancer, Osteosarcoma, five day incubation
Method: as §1, §2

DU145 = conditions: Homo sapiens, DU-145, 120 h, Cancer, Prostate carcinoma, five day incubation
Method: as §1, §2

KG1a = conditions: Homo sapiens, KG-1a, 120 h, Cancer, Acute Myelogenous Leukemia, five day incubation
Method: as §1, §2

786-0 = conditions: Homo sapiens, 120 h, Cancer, Renal Cell Adenocarcinoma, five day incubation
Method: as §1, §2

HL-60 = conditions: Homo sapiens, 120 h, Cancer, Acute Promyelocytic Leukemia, five day incubation
Method: as §1, §2

MRC5 = conditions: Homo sapiens, 120 h, Normal, fetal lung fibroblast, five day incubation
Method: as §1, §2

A498 = conditions: Homo sapiens, 120 h, Cancer, Renal carcinoma, five day incubation
Method: as §1, §2

HeLa = conditions: Homo sapiens, 120 h, Cancer, Cervical adenocarcinoma, five day incubation
Method: as §1, §2

LCL#2 = conditions: 120 h, Normal, Epstein-Barr-virus-transformed lymphoblastoid cell lines, five day incubation
Method: as §1, §2

ACHN = conditions: Homo sapiens, 120 h, Cancer, Renal Cell Adenocarcinoma, five day incubation
Method: as §1, §2

BJ Ras = conditions: 120 h, Cancer, Transformed fibroblast, five day incubation
Method: as §1, §2

VH10 = conditions: 120 h, Normal, fibroblast, five day incubation
Method: as §1, §2

T98G = conditions: Homo sapiens, 120 h, Cancer, Glioblastoma Multiforme, five day incubation
Method: as §1, §2

SMILES | EC50 (PC3) [µM] | EC50 (HCT116) [µM] | EC50 (HT-29) [µM] | EC50 (HCT116 + Chr3) [µM] | EC50 (Reh) [µM] | EC50 (UO31) [µM] | EC50 (CCD841) [µM] | EC50 (BJ Tert) [µM] | EC50 (SW480) [µM] | EC50 (A549) [µM] | EC50 (Jurkat) [µM] | EC50 (Rec1) [µM] | EC50 (M059J) [µM] | EC50 (H460) [µM] | EC50 (RFX393) [µM] | EC50 (MOLT4) [µM] | EC50 (CCRF-CEM) [µM] | EC50 (PL-21) [µM] | EC50 (A3) [µM] | EC50 (SaOS2) [µM] | other results
O=C(Nc1ccc(I)cc1)N1CCC(n2c(=O)[nH]c3c(Br)cccc32)CC1 [Example 13, 4-(4-Bromo-2-oxo-2,3-dihydro-1H-1,3-benzodiazol-1-yl)-N-(4-iodophenyl)piperidine-1-carboxamide] | 35 | 18 | 24 | 21 | 19 | 2.9 | 43 | 34 | 33 | 12 | 13 | 14 | 26 | 10 | 20 | 15 | 15 | 15 | 11 | 21 | EC50 (DU145): 13 µM; EC50 (KG1a): 16 µM; EC50 (786-0): 30 µM; EC50 (HL-60): 22 µM; EC50 (MRC5): 75 µM; EC50 (A498): 29 µM; EC50 (HeLa): 22 µM; EC50 (LCL#2): 25 µM; EC50 (ACHN): 2.3 µM; EC50 (BJ Ras): 4.8 µM; EC50 (VH10): 32 µM; EC50 (T98G): 14 µM
O=C(Nc1ccc(Cl)c(Cl)c1)N1CCC(n2c(=O)[nH]c3c(-c4ccc(CO)nc4)cccc32)CC1 [Example 28, N-(3,4-dichlorophenyl)-4-{4-[6-(hydroxymethyl)pyridin-3-yl]-2-oxo-2,3-dihydro-1H-1,3-benzodiazol-1-yl}piperidine-1-carboxamide] | 19 | 15 | 23 | 17 | 15 | 7.1 | 40 | 24 | 20 | 11 | 14 | 13 | 21 | 14 | 14 | 13 | 11 | 10 | 7.9 | 16 | EC50 (DU145): 11 µM; EC50 (KG1a): 18 µM; EC50 (786-0): 15 µM; EC50 (HL-60): 14 µM; EC50 (MRC5): 21 µM; EC50 (A498): 21 µM; EC50 (HeLa): 16 µM; EC50 (LCL#2): 41 µM; EC50 (ACHN): 8.5 µM; EC50 (BJ Ras): 15 µM; EC50 (VH10): 21 µM; EC50 (T98G): 19 µM
Cc1cc(NC(=O)N2CCC(n3c(=O)[nH]c4c(Br)cccc43)CC2)ccc1I [Example 50, 4-(4-Bromo-2-oxo-2,3-dihydro-1H-1,3-benzodiazol-1-yl)-N-(4-iodo-3-methylphenyl)piperidine-1-carboxamide] | 29 | 29 | 22 | 20 | 17 | 3.2 | 54 | 31 | 30 | 8.5 | 15 | 15 | 29 | 17 | 12 | 17 | 7.9 | 18 | 9.8 | 20 | EC50 (DU145): 3.1 µM; EC50 (KG1a): 19 µM; EC50 (786-0): 33 µM; EC50 (HL-60): 24 µM; EC50 (MRC5): 47 µM; EC50 (A498): 35 µM; EC50 (HeLa): 35 µM; EC50 (LCL#2): 32 µM; EC50 (ACHN): 2.8 µM; EC50 (BJ Ras): 14 µM; EC50 (VH10): 48 µM; EC50 (T98G): 17 µM
